Test results taken from EP4458820A1 (Shanghai Institute of Materia Medica, Chinese Academy of …, priority 2021, dated 2023).
Several values for one entry are separate records, joined by “and”; a condition that tells them apart may be missing. Equal values may be shown once. Read-outs that look alike come from different tables or passages of the source. Blank lines part the entries; values can stand above or below the compound they belong to.

Legend:
[1] = pharmacokinetic studies in mice; type: in vivo; design: AUC(0-t) / AUClast: concentration or dose not given beside the values; settings: for F: bioavailability p.o. versus i.v.
Experimental: The preliminary pharmacokinetic studies in mice or rats of the target compounds with excellent activity obtained from the above studies were conducted to investigate the pharmacokinetic properties of the compounds under oral, intraperitoneal and intravenous administration in detail, and to calculate the parameters of in vivo exposure (AUC), peak concentration (Cmax), time to peak (Tmax), half-life period (T1/2) and bioavailability (F), which would provide a clue for further structural modification and optimization of the compounds, as well as a basis for in vivo dosage design.

[2] = test system: THRβ receptor downstream genes; assay: acute pharmacodynamic evaluation: THRβ receptor downstream gene expression in liver after single administration; type: in vivo, C57 mice
Text: (§1) Mice or rats were used for single oral administration, and liver and heart were taken at 3 time points after administration to detect the expression of THRβ receptor downstream genes (DIO1, ME, CYP7α1, LDLR) in the target organ-liver, and to detect the expression of THRβ receptor downstream genes (DIO1, MHCα) in the organ involved in toxicity-heart.

MHCα = assay: preliminary safety assessment: MHCα expression in the heart of C57 mice; type: in vivo; settings: after administration
Text: as §1

thyroid axis = assay: inhibitory effect on the thyroid axis in C57 mice; type: in vivo; settings: administered at high doses
[3] = tissue distribution studies in mice; type: in vivo; settings: for concentration at 3 h / concentration at 8 h / concentration at 24 h: mouse, po
[4] = test system: cardiac DIO1 and MHCα genes; assay: in vivo safety evaluation: downstream gene expression in the heart of thyroidectomized rats
Experimental: Normal SD rats, which underwent thyroidectomy and recovered for 1-2 weeks, were grouped by body weight and then given the test compounds or the positive compound MGL-3196. Cardiac tissues were taken after euthanasia 6 h after the administration of the drug to examine the expression of the αMHC gene in the heart after single dose of the drug.

[5] = test system: CDAHFD feed-induced NAFLD model mice; assay: pharmacodynamic evaluation in CDAHFD feed-induced NAFLD model mice; type: in vivo; settings: after 2 and 4 weeks of long-term administration
[6] = test system: high-fat feed -induced golden hamster model; assay: pharmacodynamic evaluation in high-fat feed-induced golden hamster model; type: in vivo; settings: 10 mg/kg, after 21 days of administration
[7] = mouse, in vivo, iv, individual animal
[8] = mouse, in vivo, po, individual animal
[9] = mouse, in vivo, po, individual animal, read-out: Cmax
[10] = mouse, in vivo, po, individual animal, read-out: Tmax
[11] = mouse, in vivo, po, mean, read-out: Cmax
[12] = mouse, in vivo, po, mean, read-out: Tmax
[13] = Table 4, oral 10 mg/kg, 3 h, individual animal, 10 mg/kg
[14] = Table 4, oral 10 mg/kg, 8 h, individual animal, 10 mg/kg
[15] = Table 4, oral 10 mg/kg, 24 h, individual animal, 10 mg/kg
[16] = Table 6, oral 10 mg/kg, 3.00 h, individual animal, 10 mg/kg
[17] = Table 6, oral 10 mg/kg, 8.00 h, individual animal, 10 mg/kg
[18] = Table 6, oral 10 mg/kg, 24.0 h, individual animal, 10 mg/kg

F [1]: 36.3%
AUClast ([1]; i.v., individual animal): 106.173 µg·h/mL and 104.125 µg·h/mL
T1/2 ([1]; i.v., individual animal): 5.10 h and 6.62 h
Vss_obs ([1]; i.v., individual animal): 0.289 L/kg and 0.253 L/kg and 0.315 L/kg
CL_obs ([1]; i.v., mean): 0.73 mL/min/kg
Vss_obs ([1]; i.v., mean): 0.286 L/kg
AUC(0-t) [1, 7]: 118 µg·h/mL
half-life [1, 7]: 6.4 h
AUC(0-t) ([1]; mouse, in vivo, iv, mean): 109 µg·h/mL
half-life ([1]; mouse, in vivo, iv, mean): 6.04 h
AUC(0-t) [1, 8]: 62.5 µg·h/mL
half-life [1, 8]: 4.31 h
Cmax [1, 9]: 9650 ng/mL
Tmax [1, 10]: 1 h
AUC(0-t) ([1]; mouse, in vivo, po, mean): 79.4 µg·h/mL
half-life ([1]; mouse, in vivo, po, mean): 4.71 h
Cmax [1, 11]: 10500 ng/mL
Tmax [1, 12]: 0.83 h
AUClast ([1]; p.o., individual animal): 100.901 µg·h/mL and 74.686 µg·h/mL
Cmax ([1]; p.o., individual animal): 12800 ng/mL and 9108 ng/mL
T1/2 ([1]; p.o., individual animal): 4.80 h and 5.02 h
Tmax ([1]; p.o., individual animal): 0.50 h
thyroid hormone levels (thyroid axis): did not affect
Structure (SMILES): Cc1cc(-c2ccc(F)cc2)nc2ccc(Oc3c(Cl)cc(-n4nc(C#N)c(=O)[nH]c4=O)cc3Cl)cc12 [Compound 3, 2-(3,5-Dichloro-4-((2-(4-fluorophenyl) -4-methylquinolin-6-yl)oxy)phenyl) -3,5-dioxo-2,3,4,5-tetrahydro-1,2,4-triazine-6-carbonitrile]
CL_obs ([1]; i.v., individual animal): 0.67 mL/min/kg and 0.76 mL/min/kg and 0.75 mL/min/kg
hepatic DIO1 gene expression ([2]; 3h after administration): significantly up-regulated
hepatic DIO1 gene expression ([2]; after 8 h of administration, compared with the negative control group): still effective
upregulation of MHCα in the heart (MHCα): did not result in upregulation

F [1]: 75.8%
AUClast ([1]; i.v., individual animal): 95.351 µg·h/mL and 95.119 µg·h/mL
Cmax ([1]; i.v., individual animal): 95119 ng/mL
T1/2 ([1]; i.v., individual animal): 4.30 h and 4.77 h
Vss_obs ([1]; i.v., individual animal): 0.22 L/kg and 0.27 L/kg and 0.267 L/kg
CL_obs ([1]; i.v., mean): 0.802 mL/min/kg
Vss_obs ([1]; i.v., mean): 0.252 L/kg
AUC(0-t) [1, 7]: 119 µg·h/mL
half-life [1, 7]: 3.93 h
Cmax ([1]; mouse, in vivo, iv, individual animal, read-out: Cmax): 95400 ng/mL
AUC(0-t) ([1]; mouse, in vivo, iv, mean): 103 µg·h/mL
half-life ([1]; mouse, in vivo, iv, mean): 4.33 h
AUC(0-t) [1, 8]: 162 µg·h/mL
half-life [1, 8]: 5.01 h
Cmax [1, 9]: 26000 ng/mL
Tmax [1, 10]: 0.5 h
AUC(0-t) ([1]; mouse, in vivo, po, mean): 156 µg·h/mL
half-life ([1]; mouse, in vivo, po, mean): 4.44 h
Cmax [1, 11]: 23100 ng/mL
Tmax [1, 12]: 0.83 h
AUClast ([1]; p.o., individual animal): 176.967 µg·h/mL and 130.466 µg·h/mL
Cmax ([1]; p.o., individual animal): 23595 ng/mL and 19689 ng/mL
T1/2 ([1]; p.o., individual animal): 4.18 h and 4.13 h
Tmax ([1]; p.o., individual animal): 1.00 h
Heart [3, 13]: 115 ng/g and 199 ng/g and 113 ng/g
Liver [3, 13]: 3778 ng/g and 3241 ng/g and 3353 ng/g
Plasma [3, 13]: 8371 ng/mL and 7102 ng/mL and 6639 ng/mL
Heart ([3]; Table 4, oral 10 mg/kg, 24 h, individual animal): BLQ
Heart [3, 16]: 215 ng/g and 169 ng/g
Liver [3, 16]: 1478 ng/g and 1383 ng/g
Plasma [3, 16]: 5796 ng/mL and 4534 ng/mL
Heart [3, 17]: 196 ng/g and 116 ng/g
Liver [3, 17]: 614 ng/g and 469 ng/g
Plasma [3, 17]: 4487 ng/mL and 2490 ng/mL
Heart [3, 18]: 6.36 ng/g and 13.7 ng/g and 20.5 ng/g
Liver [3, 18]: 23.3 ng/g and 39.5 ng/g and 56.7 ng/g
Plasma [3, 18]: 165 ng/mL and 335 ng/mL and 412 ng/mL
concentration at 3 h ([3]; heart, 10 mg/kg, Table 4, 3 h, individual animal, read-out: Heart): 189 ng/g
concentration at 3 h ([3]; heart, 10 mg/kg, Table 4, 3 h, mean, read-out: Heart Mean): 154 ng/g
concentration at 8 h ([3]; heart, 10 mg/kg, Table 4, 8 h, mean, read-out: Heart Mean): 50.5 ng/g
concentration at 24 h ([3]; heart, 10 mg/kg, Table 4, 24 h, mean, read-out: Heart Mean): 0 ng/g
concentration at 3 h ([3]; heart, 10 mg/kg, Table 6, 3.00 h, individual animal, read-out: Heart): 197 ng/g
concentration at 3 h ([3]; heart, 10 mg/kg, Table 6, 3.00 h, mean, read-out: Heart Mean): 194 ng/g
concentration at 8 h ([3]; heart, 10 mg/kg, Table 6, 8.00 h, individual animal, read-out: Heart): 139 ng/g
concentration at 8 h ([3]; heart, 10 mg/kg, Table 6, 8.00 h, mean, read-out: Heart Mean): 150 ng/g
concentration at 24 h ([3]; heart, 10 mg/kg, Table 6, 24.0 h, mean, read-out: Heart Mean): 13.5 ng/g
concentration at 3 h ([3]; liver, 10 mg/kg, Table 4, 3 h, individual animal, read-out: Liver): 4300 ng/g
concentration at 3 h ([3]; liver, 10 mg/kg, Table 4, 3 h, mean, read-out: Liver Mean): 3670 ng/g
concentration at 8 h ([3]; liver, 10 mg/kg, Table 4, 8 h, mean, read-out: Liver Mean): 617 ng/g
concentration at 24 h ([3]; liver, 10 mg/kg, Table 4, 24 h, mean, read-out: Liver Mean): 22 ng/g
concentration at 3 h ([3]; liver, 10 mg/kg, Table 6, 3.00 h, individual animal, read-out: Liver): 1880 ng/g
concentration at 3 h ([3]; liver, 10 mg/kg, Table 6, 3.00 h, mean, read-out: Liver Mean): 1580 ng/g
concentration at 8 h ([3]; liver, 10 mg/kg, Table 6, 8.00 h, individual animal, read-out: Liver): 689 ng/g
concentration at 8 h ([3]; liver, 10 mg/kg, Table 6, 8.00 h, mean, read-out: Liver Mean): 591 ng/g
concentration at 24 h ([3]; liver, 10 mg/kg, Table 6, 24.0 h, mean, read-out: Liver Mean): 39.8 ng/g
concentration at 3 h ([3]; plasma, 10 mg/kg, Table 4, 3 h, individual animal, read-out: Plasma): 9340 ng/mL
concentration at 3 h ([3]; plasma, 10 mg/kg, Table 4, 3 h, mean, read-out: Plasma Mean): 7860 ng/mL
concentration at 8 h ([3]; plasma, 10 mg/kg, Table 4, 8 h, mean, read-out: Plasma Mean): 3220 ng/mL
concentration at 24 h ([3]; plasma, 10 mg/kg, Table 4, 24 h, mean, read-out: Plasma Mean): 164 ng/mL
concentration at 3 h ([3]; plasma, 10 mg/kg, Table 6, 3.00 h, mean, read-out: plasma Mean): 5260 ng/mL
concentration at 8 h ([3]; plasma, 10 mg/kg, Table 6, 8.00 h, mean, read-out: plasma Mean): 3430 ng/mL
concentration at 24 h ([3]; plasma, 10 mg/kg, Table 6, 24.0 h, mean, read-out: plasma Mean): 304 ng/mL
concentration at 3 h ([3]; 10 mg/kg, Table 6, 3.00 h, individual animal, read-out: plasma): 5450 ng/mL
concentration at 8 h ([3]; 10 mg/kg, Table 6, 8.00 h, individual animal, read-out: plasma): 3330 ng/mL
Structure (SMILES): Cc1cc(C(F)(F)F)nc2ccc(Oc3c(Cl)cc(-n4nc(C#N)c(=O)[nH]c4=O)cc3Cl)cc12 [Compound 38, 2-(3,5-Dichloro-4-((2-trifluoromethyl-4-methylquinolin-6-yl)oxy)phenyl) -3,5-dioxo-2,3,4,5-tetrahydro-1,2,4-triazine-6-carbonitrile]
CL_obs ([1]; i.v., individual animal): 0.691 mL/min/kg and 0.859 mL/min/kg and 0.856 mL/min/kg
Heart [3, 14]: 39.9 ng/g and 72.2 ng/g and 26.4 ng/g and 63.3 ng/g
Liver [3, 14]: 582 ng/g and 895 ng/g and 264 ng/g and 729 ng/g
Plasma [3, 14]: 2473 ng/mL and 4555 ng/mL and 2005 ng/mL and 3847 ng/mL
Liver [3, 15]: 29.5 ng/g and 27.8 ng/g and 14.5 ng/g and 16.3 ng/g
Plasma [3, 15]: 281 ng/mL and 192 ng/mL and 88.6 ng/mL and 93.6 ng/mL
expression of CYP7α1, ME2, and LDLR genes in the liver ([2]; C57 mice, single administration, 10 mg/kg, after 24 h of administration): significantly up-regulated
DIO1 gene expression in the liver ([2]; C57 mice, single administration, after 8 and 24 h of administration, T3 0.5 mg/kg, compound 38 10 mg/kg): significantly up-regulated
effects on cardiac DIO1 and MHCα genes [4]: neither compound 38 nor MGL3196 had significant effects
plasma TC levels ([5]; 1 mg/kg dosage group): decreased
plasma TC levels ([5]; 10 mg/kg dosage group): decreased
serum TC/TG levels and LCL-C levels [6]: significant decrease
